SMILES strings stand for the structures. Where two headings read alike, the source gives them in different places.

The target of assay [1] is T1, CB1 receptor (Homo sapiens, UniProt P21554). As to the kind of experiment: cAMP Assay #2: Hit Hunter cAMP assay, Gi-coupled agonist activity, CB1. The arrangement: host or cells: PathHunter cell lines. Type of assay: cell-based. As for the experimental part:
(§1) Compounds of the invention were assayed in the Hit Hunter® cAMP assay to determine Gi-coupled agonist activity on the CB1 and CB2 receptors, the results of which are provided in Table 5.
(§2) The Hit Hunter® cAMP assay monitors the activation of a GPCR via Gi and […] secondary messenger signaling in a homogenous, non-imaging assay format using a technology developed by DiscoverX called Enzyme Fragment Complementation (EFC) with β-galactosidase (β-Gal) as the functional reporter. […] ED is fused to cAMP and in the assay competes with cAMP generated by cells for binding to a cAMP-specific antibody. Active β-Gal is formed by complementation of exogenous EA to any unbound ED cAMP. Active enzymes can then convert a chemiluminescent substrate, generating an output signal detectable on a standard microplate reader.
(§3) cAMP Hunter cell lines were expanded from freezer stocks according to standard procedures. Cells were seeded in a total volume of 20 μL into white walled, 384-well microplates and incubated at 37° C. for the appropriate time prior to testing. cAMP modulation was determined using the DiscoverX Hit Hunter cAMP XS+ assay. For Gi agonist activity determination, cells were incubated with sample in the presence of EC80 forskolin to induce response (20 μM and 25 μM in the CB1 and CB2 assays, respectively). Media was aspirated from cells and replaced with 15 μL 2:1 HBSS/10 mM HEPES:cAMP XS+Ab reagent.
(§4) Intermediate dilution of sample stocks was performed to generate 4× sample in assay buffer. 5 μL of 4× compound was added to cells and incubated at 37° C. or room temperature for 30 or 60 minutes. Final vehicle concentration was 1%. Assay signal was generated through incubation with 20 μL cAMP XS+ED/CL lysis cocktail for one hour at room temperature. Microplates were read following signal generation with a PerkinElmer Envision™ instrument for chemiluminescent signal detection. Compound activity was analyzed using CBIS data analysis suite (Chem Innovation, CA). For agonist assays, percentage activity was calculated using the following formula: % Activity=100%×(1−(mean RLU of test sample−mean RLU of Max control ligand)/(mean RLU of vehicle control−mean RLU of Max control ligand). Control ligand was the non-selective CB1/CB2 agonist CP55,940.

In assay [2] the target is T1, CB1 receptor. As to the kind of experiment: cell-based. The arrangement: host or cells: PathHunter cell lines. Here is the method:
(§5) The PathHunter® β-Arrestin assay monitors the activation of a GPCR in a homogenous, non-imaging assay format using a technology developed by DiscoverX called Enzyme Fragment Complementation (EFC) with β-galactosidase (3-Gal) as the functional reporter. […] EA is fused to β-Arrestin and PK is fused to the GPCR of interest.
(§6) PathHunter cell lines were expanded from freezer stocks according to standard procedures. Cells were seeded in a total volume of 20 μL into white walled, 384-well microplates and incubated at 37° C. for the appropriate time prior to testing. For agonist activity determination, cells were incubated with sample to induce response. Intermediate dilution of sample stocks was performed to generate 5× sample in assay buffer. 5 μL of 5× sample was added to cells and incubated at 37° C. or room temperature for 90 to 180 minutes. Vehicle concentration was 1%. Assay signal was generated through a single addition of 12.5 or 15 μL (50% v/v) of PathHunter Detection reagent cocktail, followed by a one hour incubation at room temperature. Microplates were read following signal generation with a PerkinElmer Envision™ instrument for chemiluminescent signal detection. Compound activity was analyzed using CBIS data analysis suite (ChemInnovation, CA). For agonist assays, percentage activity was calculated using the following formula: % Activity=100%×(mean RLU of test sample− mean RLU of vehicle control)/(mean MAX control ligand− mean RLU of vehicle control).

Assay [3] has as its target T2, CB2 receptor (Homo sapiens, UniProt P34972). Briefly: cAMP Assay #2: Hit Hunter cAMP assay, Gi-coupled agonist activity, CB2. Type of assay: cell-based. The arrangement: host or cells: cAMP Hunter cell lines. As to conditions: for CB2 fold selectivity: CB1 EC50 / CB2 EC50. As for the experimental part: as §1, §2, §3, §4
Background: cAMP levels reflect the balance of adenylyl cyclase and phosphodiesterase activity.

For assay [4], the target named is T2, CB2 receptor. As to the kind of experiment: cell-based. The arrangement: host or cells: cAMP Hunter cell lines. As for the experimental part: as §5, §6
Assay [5] has as its target T1, CB1 receptor. As to the kind of experiment: CB1 competitive radioligand binding assay ([3H] SR141716A). The arrangement: expressed in transfected cells; host or cells: Chem-1 cells. As to conditions: for inhibition at 0.5 µM: 0.5 μM compound, 2.0 nM [3H] SR141716A, 90 min 37° C. As for the experimental part:
(§7) J Med Chem. 41(26): 5177-5187 (1998); and Munro S., et al. Molecular characterization of a peripheral receptor for cannabinoids. Nature 365:61-65 (1993).
CB1 Radioligand Binding Assay: A compound of the invention (0.5 μM in 1% DMSO) was incubated with Chem-1 cells expressing human recombinant CB1 receptor in buffer (50 mM HEPES, pH 7.4, 5 mM MgCl2, 1 mM CaCl2, 0.2% BSA) for 90 minutes at 37° C. in the presence of 2.0 nM [H^3] SR141716A (CB1 radioligand). % Inhibition was determined as a function of radioligand binding to the CB1 receptor.

Assay [6] addresses T2, CB2 receptor. Briefly: CB2 competitive radioligand binding assay ([3H] WIN-55,212-2). The arrangement: expressed in transfected cells; host or cells: CHO-K1 cells. As to conditions: for Fold Selectivity (CB1/CB2): Table 3, ratio of Ki CB1/CB2; for inhibition at 0.05 µM: 0.05 μM compound, 2.4 nM [3H] WIN-55,212-2, 90 min 37° C. Here is the method: as §7
CB2 Radioligand Binding Assay: A compound of the invention (0.05 μM in 1% DMSO) was incubated with CHO-K1 cells expressing human recombinant CB2 receptor in buffer (20 mM HEPES, pH 7.0, 0.5% BSA) for 90 minutes at 37° C. in the presence of 2.4 nM [H^3] WIN-55,212-2 (CB2 radioligand). % Inhibition was determined as a function of radioligand binding to the […].

[7] abbreviates: PathHunter agonist mode, read-out: CB1 Activity (β-Arrestin).
Setting [8] is: PathHunter agonist mode, read-out: CB2 Activity (β-Arrestin).

T2 sequence (P34972 whole entry): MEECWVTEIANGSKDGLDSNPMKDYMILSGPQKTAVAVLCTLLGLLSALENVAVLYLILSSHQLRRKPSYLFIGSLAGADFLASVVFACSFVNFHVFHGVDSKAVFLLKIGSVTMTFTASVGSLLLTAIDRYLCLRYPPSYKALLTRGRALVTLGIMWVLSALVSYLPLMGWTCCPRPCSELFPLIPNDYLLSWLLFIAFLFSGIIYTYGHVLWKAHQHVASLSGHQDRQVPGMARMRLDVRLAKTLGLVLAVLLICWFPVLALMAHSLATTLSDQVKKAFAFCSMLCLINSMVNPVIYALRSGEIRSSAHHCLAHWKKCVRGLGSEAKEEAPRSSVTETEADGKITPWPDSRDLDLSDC
T1 sequence (P21554 whole entry): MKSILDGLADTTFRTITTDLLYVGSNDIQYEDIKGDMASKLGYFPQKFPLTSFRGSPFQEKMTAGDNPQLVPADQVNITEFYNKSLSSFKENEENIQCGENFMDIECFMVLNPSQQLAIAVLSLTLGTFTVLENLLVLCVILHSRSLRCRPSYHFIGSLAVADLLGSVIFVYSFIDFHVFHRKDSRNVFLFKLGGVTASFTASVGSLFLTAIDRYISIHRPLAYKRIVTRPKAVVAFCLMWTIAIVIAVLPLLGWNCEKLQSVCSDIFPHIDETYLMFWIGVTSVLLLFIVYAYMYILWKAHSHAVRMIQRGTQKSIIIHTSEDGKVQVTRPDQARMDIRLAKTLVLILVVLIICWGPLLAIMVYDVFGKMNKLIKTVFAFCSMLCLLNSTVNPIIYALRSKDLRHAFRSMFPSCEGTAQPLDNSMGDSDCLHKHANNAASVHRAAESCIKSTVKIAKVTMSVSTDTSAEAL

Turning to `CC(C)(CCCCCCO)c1cc(O)c2c(c1)OC(C)(C)[C@@H]1CC=C(C(=O)O)C[C@@H]21` [Compound 57, (6aR,10aR)-1-hydroxy-3-(8-hydroxy-2-methyloctan-2-yl)-6,6-dimethyl-6a,7,10,10a-tetrahydro-6H-benzo[c]chromene-9-carboxylic acid], the EC50 came to 0.0921 µM at CB1 receptor [1], 0.29 µM at CB1 receptor [2] (setting [7]), 0.0397 µM on CB2 receptor [3] and 0.022 µM on CB2 receptor [4] (setting [8]). The same molecule had a CB2 fold selectivity on CB2 receptor [3] (Hit Hunter cAMP) of 2.3. In addition, the inhibition constant Ki (in general, a dissociation constant, usually derived from enzyme kinetics or from competition with a known ligand) at CB1 receptor [5] is 0.162 µM; at CB2 receptor [6], 0.0563 µM. Moreover, the “Fold Selectivity (CB1/CB2)” value on CB2 receptor [6] was found to be 2.9.
In the case of `CCCCCCC(C)(C)c1cc(O)c2c(c1)OC(C)(C)[C@@H]1CC=C(C(=O)NOCCO)C[C@@H]21` [Compound 41], the EC50 amounted to 0.0063 µM at CB1 receptor [1] (Hit Hunter cAMP, 20 μM forskolin, control ligand CP55,940, read-out: CB1, EC50); 0.0378 µM on CB1 receptor [2] (setting [7]); 0.0015 µM at CB2 receptor [3] (Hit Hunter cAMP, 25 μM forskolin, control ligand CP55,940, read-out: CB2, EC50); 0.0018 µM at CB2 receptor [4] (setting [8]). Further, on CB2 receptor [3] (Hit Hunter cAMP), the CB2 fold selectivity is given as 4.3. For the same molecule, the inhibitory constant (Ki) worked out at 0.0274 µM at CB1 receptor [5] (Table 3, read-out: Ki CB1) and 0.0043 µM at CB2 receptor [6] (Table 3, read-out: Ki CB2). The “Fold Selectivity (CB1/CB2)” value at CB2 receptor [6] was 6.4.
Take `CCCCCCC(C)(C)c1cc(O)c2c(c1)OC(C)(C)[C@@H]1CC=C(C(=O)N[C@H]3C[C@@H](O)C3)C[C@@H]21` [Compound 46, (6aR,10aR)-1-hydroxy-N-((1 S,3S)-3-hydroxycyclobutyl)-6,6-dimethyl-3-(2-methyloctan-2-yl)-6a,7,10,10a-tetrahydro-6H-benzo[c]chromene-9-carboxamide]: the EC50 came out at 0.263 µM on CB1 receptor [1], 6 µM at CB1 receptor [2], 0.0084 µM at CB2 receptor [3] and 0.0036 µM on CB2 receptor [4] (setting [8]). On CB2 receptor [3] (Hit Hunter cAMP), this molecule gave a CB2 fold selectivity of 31.4. Also, the values for the inhibition constant (Ki) at CB1 receptor [5] and on CB2 receptor [6] were 0.0903 µM and 0.0229 µM, respectively. Moreover, at CB2 receptor [6], the “Fold Selectivity (CB1/CB2)” value is recorded as 3.9.
For the molecule `CCCCCCC(C)(C)c1cc(O)c2c(c1)OC(C)(C)[C@@H]1CC=C(C(=O)NC(C)(C)C)C[C@@H]21` [Compound 95, (6aR,10aR)-N-(tert-butyl)-1-hydroxy-6,6-dimethyl-3-(2-methyloctan-2-yl)-6a,7,10,10a-tetrahydro-6H-benzo[c]chromene-9-carboxamide], the EC50 at CB1 receptor [1] was 0.0132 µM; at CB1 receptor [2], 0.0239 µM; at CB2 receptor [3] it was 0.0012 µM; on CB2 receptor [4] (setting [8]) it was 0.0013 µM. The CB2 fold selectivity on CB2 receptor [3] (Hit Hunter cAMP) worked out at 11.0. For the same molecule, the results for the Ki on CB1 receptor [5] and on CB2 receptor [6] were 0.0311 µM and 0.0032 µM, respectively. At CB2 receptor [6], the “Fold Selectivity (CB1/CB2)” value is 9.7.
In the case of `CCCCCCC(C)(C)c1cc(O)c2c(c1)OC(C)(C)[C@@H]1CC=C(C(=O)NN3CCCCC3)C[C@@H]21` [Compound 48, (6aR,10aR)-1-hydroxy-6,6-dimethyl-3-(2-methyloctan-2-yl)-N-(piperidin-1-yl)-6a,7,10,10a-tetrahydro-6H-benzo[c]chromene-9-carboxamide], the EC50 on CB1 receptor [1] is greater than 3 µM; at CB1 receptor [2], greater than 3 µM; at CB2 receptor [3], 0.007 µM; at CB2 receptor [4] (setting [8]), 0.0044 µM. In addition, on CB2 receptor [3] (Hit Hunter cAMP), the CB2 fold selectivity is listed as greater than 428. For the same molecule, the Ki on CB1 receptor [5] stood at 0.233 µM; on CB2 receptor [6] it was 0.0092 µM. The “Fold Selectivity (CB1/CB2)” value on CB2 receptor [6] is recorded as 25.3.
Regarding `CCCC(C)(C)c1cc(O)c2c(c1)OC(C)(C)[C@@H]1CC=C(C(=O)NC3CCCC3)C[C@@H]21` [Compound 97, (6aR,10aR)-N-cyclopentyl-1-hydroxy-6,6-dimethyl-3-(2-methylpentan-2-yl)-6a,7,10,10a-tetrahydro-6H-benzo[c]chromene-9-carboxamide], the EC50 at CB1 receptor [2] is greater than 3 µM; on CB2 receptor [4], 0.0179 µM. The figures for the inhibition constant (Ki) on CB1 receptor [5] and on CB2 receptor [6] were 0.78 µM and 0.072 µM, respectively. The “Fold Selectivity (CB1/CB2)” value on CB2 receptor [6] is on record as 10.8.
As to `CCCC(C)(C)c1cc(O)c2c(c1)OC(C)(C)[C@@H]1CC=C(C(=O)NC3(C(F)(F)F)CC3)C[C@@H]21` [Compound 102, (6aR,10aR)-1-hydroxy-6,6-dimethyl-3-(2-methylpentan-2-yl)-N-(1-(trifluoromethyl)cyclopropyl)-6a,7,10,10a-tetrahydro-6H-benzo[c]chromene-9-carboxamide], the EC50 at CB1 receptor [2] (setting [7]) was greater than 3 µM; at CB2 receptor [4] (setting [8]) it was 0.0305 µM. The inhibition constant Ki on CB1 receptor [5] was determined as 0.86 µM; at CB2 receptor [6] it was 0.051 µM. In addition, the “Fold Selectivity (CB1/CB2)” value on CB2 receptor [6] is reported as 16.9.
For the molecule `CCCCCCC(C)(C)c1cc(O)c2c(c1)OC(C)(C)[C@@H]1CC=C(C(=O)NCC(=O)O)C[C@@H]21` [Compound 1, ((6aR,10aR)-1-Hydroxy-6,6-dimethyl-3-(2-methyloctan-2-yl)-6a,7,10,10a-tetrahydro-6H-benzo[c]chromene-9-carbonyl)glycine], the values for the EC50 on CB1 receptor [2] (setting [7]) and at CB2 receptor [4] (setting [8]) were greater than 3 µM and 0.058 µM, respectively. Besides, at CB1 receptor [5], the inhibition – broadly, the drop in the measured response relative to a control, in per cent – at 0.5 µM came out at 10%. In addition, the inhibition constant (Ki) at CB1 receptor [5] (Table 2, read-out: CB1 Binding Ki) is greater than 3 µM; on CB2 receptor [6] (Table 2, read-out: CB2 Binding Ki), 1.31 µM. Also, the inhibition at 0.05 µM at CB2 receptor [6] is 4%.
Consider `CCCCCCC(C)(C)c1cc(O)c2c(c1)OC(C)(C)[C@@H]1CC=C(C(=O)OCC(O)CO)C[C@@H]21` (stereo partly drawn) [Compound 22, 2,3-Dihydroxypropyl (6aR,10aR)-1-hydroxy-6,6-dimethyl-3-(2-methyloctan-2-yl)-6a,7,10,10a-tetrahydro-6H-benzo[c]chromene-9-carboxylate], for which the EC50 at CB1 receptor [2] came to 0.042 µM; at CB2 receptor [4] (setting [8]), 0.004 µM. The inhibition at 0.5 µM at CB1 receptor [5] is 107%. At CB2 receptor [6], the inhibition at 0.05 µM was 92%.

The values above are taken from patent publication US20210284621A1 (priority 2018, published 2021).
